In brackets after ≈: the same amount, converted by molar mass. Where a name gives a salt, the structure may show the parent alone.
Assays:
Plasma stability assay = format: in vitro ADME, human; settings: for half-life at 3 μM: read-out: T½ in human plasma; for Δ^8-THC detected in plasma: release of parent Δ^8-THC in human plasma incubation
Experimental: As used herein, the “human plasma stability, T1/2” is determined according to the procedure described in Example 10.
Procaine and Procainamide were purchased from Sigma-Aldrich. Human plasma was obtained from BioIVT (Cat. No. […]2N) and 1× Dulbecco's PBS (pH 7.4, Gibco) was obtained from Thermos Fischer. Stock solutions were prepared in 100% DMSO, and suitable dilutions of target analytes were prepared in methanol for method development.
Test compounds were dissolved in DMSO to make a stock solution of 10 mM and then diluted to 500 μM in buffer (or 70% MeOH). Human plasma was thawed at ambient temperature and is aliquoted (994.0 μL) to a 1.5 mL Eppendorf tube in duplicates (A and B) for each compound. Plasma was incubated at 37° C. for 10 minutes in an incubator shaker at 150 rpm; the reaction was initiated by the addition of the test compound (6.0 μL) and vortex mixing. The total reaction volume was 1000 μL where the final organic solvent concentrations were 0.6% MeOH and 0.03% DMSO. The spiked plasma samples were incubated at 37° C. for […]. The reactions were terminated at time points 0, 15, 30, 60, and 120 min by taking a 100 μL aliquot from the test incubation mixture and immediately quenching it in ice-cold mathanol containing internal standard (150 μL with 2 μM ISTD), followed by a quick vortex mixing. In addition, matrix blank was prepared by adding methanol solutions containing ISTD to plasma samples without any of the analytes or control compounds. Also, an additional tube was made to measure compound degradation in PBS buffer. The samples were centrifuged at 15,000 rpm for 25 min at 4° C. The supernatant was transferred to an LC-MS vial for analysis by LC/MS-MS. Each time point was run in duplicates followed by in-between blank washes to avoid the carryover and to equilibrate the column. Half-life (T1/2) was calculated using the data obtained from LC-MS/MS and by plotting ln (% remaining of the parent prodrug) versus time and performing linear regression to determine slope. Slope=−k and T1/2=0.693/k for first-order kinetics. Procaine (poor plasma stability) was used as a positive control at a final concentration of 3 μM. The positive control was run in parallel to test the systems for competency.
An exemplary experimental setup is described below. Conical polypropylene microcentrifuge tubes (1.5 mL) were labelled in duplicate for 0, 15, 30, 60, and 120 min for each compound being tested. • Example: No. of tubes prepared per Test Compound (TC): • Test compound: 994 μL human plasma+6.0 μL TC (Vial A) • 994 μL human plasma+6.0 μL TC (Vial B) • Positive control: 596 μL human plasma+3.6 μL (procaine) • Matrix blank: 500 μL PBS buffer+100 μL human plasma • Negative control: 142 μL PBS buffer+0.9 μL TC1 • Quenching mixture: 150 μL methanol with ISID (2 μM) • Final volume after quenching: 250 μL (100 μL from the incubation mixture and 150 μL from the quenching mixture; ISTD conc. 1.2 μM)

[1] = Nephelometry solubility in 1% DMSO; format: physicochemical; settings: PBS pH 7.0-7.3 with 1% DMSO, 25° C.; for solubility at 90 min: Dulbecco's phosphate-buffered saline with 1% DMSO, aqueous buffer, kinetic from dmso stock
Experimental: Nephelometry experiments were performed using untreated CORNING® COSTAR® 96-well black polystyrene plates with clear flat bottoms. Sample stock solutions and serial dilutions were prepared with DRISOLV® DMSO purchased from MilliporeSigma. […] Nephelometry data was obtained using a NEPHELOSTAR® microplate reader and processed with MARS data analysis software from BMG LabTech.
Tested compounds were dissolved in 100% DMSO to make stock solutions of specified concentrations, ranging from 10 mM minimum up to 50 mM maximum. The sample then underwent serial dilution in a 96-well plate (CORNING® COSTAR®). Well A1 of the plate contained 100% DMSO. […] Using a 12-channel multichannel pipette, 2.5 μL of sample from row A was transferred to each well in row B through row H of the plate. Next, 30 μL of PBS (pH=7.0-7.3) was added to row B through row H, providing each well with 32.5 μL. The plate was then incubated for 30 sec with shaking. Finally. 217.5 μL of PBS buffer was added to row B through row H, and the entire plate was incubated with shaking at 25° C. for 90 min. The final volume of DMSO in actual experiments with PBS buffer was 1% throughout the plate. After 90 min. the 96-well plate was analyzed with a NEPHELOSTAR® instrument and the data was processed with MARS data analysis software.

[2] = Liver microsome stability assay (HLM); format: in vitro ADME; settings: human liver microsomes, 3 μM test compound, NADPH, 0-30 min, LC-MS/MS; for half-life at 3 μM: pH 7.4, read-out: T½ in HLM
Experimental: As used herein, the “human liver microsomes stability, T1/2” is determined according to the procedure described in Example 9.
Human and mouse liver microsomes were purchased from Xenotech at 20 mg/mL. NADPH (Sigma-Aldrich) 10 mM stocks were prepared in deionized water.
Test compounds and positive controls were dissolved in 100% DMSO to make 10 mM stock solutions. Verapamil (Sigma-Aldrich) and diphenhydramine (Sigma-Aldrich) were used as positive controls for both human liver microsomes (HLM) and mouse liver microsomes (MLM). The 10 mM stock solutions of test and control compounds were further diluted in potassium phosphate buffer (100 mM, pH 7.4) to 500 μM to ensure that the organic solvent content was <0.2%. The liver microsome (HLM or MLM) assay was prepared in a 1.5 mL Eppendorf tube with a final volume of 1100 μL for duplicate runs. Each reaction contained phosphate buffer (928.4 μL), liver microsomes (55 μL), and test compound (6.6 μL of 500 μM), resulting in a final concentration of 3 μM for the test compound. The reaction was initiated with 110 μL of 10 mM NADPH. Aliquots (100 μL) were removed in duplicate at 0, 5, 10, 15, and 30 min and quenched in […] of 100% cold methanol which contained internal standard (ISTD: d5-7-ethoxy coumarin 2 μM). The aliquots were centrifuged at 12,000g for 5 min, and the supernatant was transferred and placed in an LC-MS vial. Each time point was assessed by LC-MS/MS, and the area under the m/z curve (AUC), based on the MRM transition, was integrated w.r.t the ISTD. Positive controls were conducted at a final volume of 550 μL to enable a single run for each time point. Negative controls in the absence of NADPH were performed with the test and control compounds, respectively, at a final volume of 150 μL and measured at the most prolonged time point. Control compounds were processed and analyzed like test compounds. Each time point was run in triplicates on LC-MS/MS followed by in-between blank washes to avoid the carryover and to equilibrate the column. Half-life (T1/2) was calculated using the data obtained from LC-MS/MS and by plotting ln (% remaining of the parent prodrug) versus time and performing linear regression to determine slope. Slope=−k and T1/2=0.693/k for first-order kinetics.

[3] = human plasma, 37° C., time points 0-120 min, LC-MS/MS

Compound | T½ in human plasma (Plasma stability assay; [3]) [min] | Solubility in 1% DMSO ([1]; 90 min) [µM] | T½ in HLM [2] [min] | half-life at 3 μM [2] [min] | half-life at 3 μM (Plasma stability assay; [3]) [min] | Δ^8-THC detected in plasma (Plasma stability assay) | solubility at 90 min [1] [µM]
CCCCCc1cc(O)c2c(c1)OC(C)(C)[C@@H]1CC=C(C)C[C@@H]21 (relative stereo) [Δ^8-THC, (−)trans-Δ^8-THC, reference compound] | 1440 ± 360 | 15.93 ± 0.8 (≈ 5.01 µg/mL) | 5.51 | – | – | – | –
CCCCCc1cc(OC(=O)OCCCOP(=O)(O)O)c2c(c1)OC(C)(C)[C@@H]1CC=C(C)C[C@@H]21 [Compound 11a, 3-(phosphonooxy)propyl ((6aR,10aR)-6,6,9-trimethyl-3-pentyl-6a,7,10,10a-tetrahydro-6H-benzo[c]chromen-1-yl) carbonate di-ammonium salt] | – | – | – | 18.8 | – | – | –
CCCCCc1cc(OC(=O)OCCCCOP(=O)(O)O)c2c(c1)OC(C)(C)[C@@H]1CC=C(C)C[C@@H]21.N.N [Compound 11b, 4-(phosphonooxy)butyl ((6aR,10aR)-6,6,9-trimethyl-3-pentyl-6a,7,10,10a-tetrahydro-6H-benzo[c]chromen-1-yl) carbonate di-ammonium salt] | – | – | – | 17.2 | > 120 | Yes | > 500
CCCCCc1cc(OC(=O)CCCOP(=O)(O)O)c2c(c1)OC(C)(C)[C@@H]1CC=C(C)C[C@@H]21.N.N [Compound 16a, (6aR,10aR)-6,6,9-trimethyl-3-pentyl-6a,7,10,10a-tetrahydro-6H-benzo[c]chromen-1-yl 4-(phosphonooxy)butanoate di-ammonium salt] | – | – | – | 51.3 | > 120 | Yes | > 500
CCCCCc1cc(OC(=O)CCCCOP(=O)(O)O)c2c(c1)OC(C)(C)[C@@H]1CC=C(C)C[C@@H]21.N.N [Compound 16b, (6aR,10aR)-6,6,9-trimethyl-3-pentyl-6a,7,10,10a-tetrahydro-6H-benzo[c]chromen-1-yl 5-(phosphonooxy)pentanoate di-ammonium salt] | – | – | – | 40.1 | – | – | > 500
CCCCCc1cc(OC(=O)NCCOP(=O)(O)O)c2c(c1)OC(C)(C)[C@@H]1CC=C(C)C[C@@H]21.N.N [Compound 21a, (6aR,10aR)-6,6,9-trimethyl-3-pentyl-6a,7,10,10a-tetrahydro-6H-benzo[c]chromen-1-yl (2-(phosphonooxy)ethyl)carbamate di-ammonium salt] | – | – | – | 5.6 | – | – | > 500
CCCCCc1cc(OC(=O)NCCCOP(=O)(O)O)c2c(c1)OC(C)(C)[C@@H]1CC=C(C)C[C@@H]21.N.N [Compound 21b, (6aR,10aR)-6,6,9-trimethyl-3-pentyl-6a,7,10,10a-tetrahydro-6H-benzo[c]chromen-1-yl (3-(phosphonooxy)propyl)carbamate di-ammonium salt] | – | – | – | 12.5 | > 120 | Yes | > 500

Reference: US20260224596A1, “Phosphate Prodrugs of Cannabinoids” (Emory University, priority 2023, published 2026)
